# Measured values as given in US20210032257A1, “(E)-1-(4-(DIMETHYLAMINO)BUT-2-ENOYL)PYRROLIDIN-3-YL 4-((3-ISOPROPYL-5-METHYLPYRAZOLO[1,5-A]PYRIMIDIN-7-YL)AMINO)PIPERIDINE-1-CARBOXYLATE FOR INHIBITING CDK7” (Eli Lilly and Company, priority 2017, published 2021).
# Assays:
# Experiment in all cases: Biomarker study proliferation (CellTiter-Glo)
# Format in all cases: cell-based
# A2058 = system: A2058
# Method in brief: (§1)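 IC50 and % inhibition define three classes: insensitive at IC50≥1 μM; cytostatic at IC50<1 μM with <70% inhibition; cytotoxic at IC50<1 μM with ≥70% inhibition. Values come from 7-day CellTiter-Glo readings.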
# AZ521 = system: AZ521
# Method in brief: as §1
# BT20 = system: BT20
# Method in brief: as §1
# EVSAT = system: EVSAT
# Method in brief: as §1
# HCC2218 = system: HCC2218
# Method in brief: as §1
# HCC70 = system: HCC70
# Method in brief: as §1
# HLE = system: HLE
# Method in brief: as §1
# KYSE70 = system: KYSE70
# Method in brief: as §1
# LN18 = system: LN18
# Method in brief: as §1
# LNCAP = system: LNCAP
# Method in brief: as §1
# MDAMB453 = system: MDAMB453
# Method in brief: as §1
# MDAMB468 = system: MDAMB468
# Method in brief: as §1
# NCIH1975 = system: NCIH1975
# Method in brief: as §1
# NUGC4 = system: NUGC4
# Method in brief: as §1
# PLCPRF5 = system: PLCPRF5
# Method in brief: as §1
# SKHEP1 = system: SKHEP1
# Method in brief: as §1
# SNU5 = system: SNU5
# Method in brief: as §1
# ZR751 = system: ZR751
# Method in brief: as §1
structure (smiles),measurement,setting,value
"Cc1cc(NC2CCN(C(=O)O[C@H]3CCN(C(=O)/C=C/CN(C)C)C3)CC2)n2ncc(C(C)C)c2n1 [Example 1, [(3S)-1-[(E)-4-(dimethylamino)but-2-enoyl]pyrrolidin-3-yl] 4-[(3-isopropyl-5-methyl-pyrazolo[1,5-a]pyrimidin-7-yl)amino]piperidine-1-carboxylate]",Anti-proliferation effect % Inh.,"A2058; A2058, SKIN, 7 days",97%
same,Anti-proliferation effect Outcome,"A2058; A2058, SKIN, 7 days",Cytotoxic (cytotoxic (IC50<1 μM and % inhibition ≥70%))
same,IC50,"A2058; Homo sapiens, A2058, 168 h, read-out: Anti-proliferation effect IC50",30 nM
same,Anti-proliferation effect % Inh.,"AZ521; AZ521, STOMACH, 7 days",76%
same,Anti-proliferation effect Outcome,"AZ521; AZ521, STOMACH, 7 days",Cytotoxic (cytotoxic (IC50<1 μM and % inhibition ≥70%))
same,IC50,"AZ521; Homo sapiens, AZ-521, 168 h, read-out: Anti-proliferation effect IC50",36 nM
same,Anti-proliferation effect % Inh.,"BT20; BT20, BREAST, 7 days",45%
same,Anti-proliferation effect Outcome,"BT20; BT20, BREAST, 7 days",Cytostatic (cytostatic (IC50<1 μM and % inhibition <70%))
same,IC50,"BT20; Homo sapiens, BT-20, 168 h, read-out: Anti-proliferation effect IC50",373 nM
same,Anti-proliferation effect % Inh.,"EVSAT; EVSAT, BREAST, 7 days",79%
same,Anti-proliferation effect Outcome,"EVSAT; EVSAT, BREAST, 7 days",Cytotoxic (cytotoxic (IC50<1 μM and % inhibition ≥70%))
same,IC50,"EVSAT; Homo sapiens, EVSA-T, 168 h, read-out: Anti-proliferation effect IC50",40 nM
same,Anti-proliferation effect % Inh.,"HCC2218; HCC2218, BREAST, 7 days",41%
same,Anti-proliferation effect Outcome,"HCC2218; HCC2218, BREAST, 7 days",Cytostatic (cytostatic (IC50<1 μM and % inhibition <70%))
same,IC50,"HCC2218; Homo sapiens, HCC2218, 168 h, read-out: Anti-proliferation effect IC50",560 nM
same,Anti-proliferation effect % Inh.,"HCC70; HCC70, BREAST, 7 days",89%
same,Anti-proliferation effect Outcome,"HCC70; HCC70, BREAST, 7 days",Cytotoxic (cytotoxic (IC50<1 μM and % inhibition ≥70%))
same,IC50,"HCC70; Homo sapiens, HCC70, 168 h, read-out: Anti-proliferation effect IC50",38 nM
same,IC50,"HLE; Homo sapiens, 168 h, read-out: Anti-proliferation effect IC50",30 nM
same,Anti-proliferation effect % Inh.,"HLE; LIVER, 7 days",77%
same,Anti-proliferation effect Outcome,"HLE; LIVER, 7 days",Cytotoxic (cytotoxic (IC50<1 μM and % inhibition ≥70%))
same,IC50,"KYSE70; Homo sapiens, KYSE-70, 168 h, read-out: Anti-proliferation effect IC50",126 nM
same,Anti-proliferation effect % Inh.,"KYSE70; KYSE70, OESOPHAGUS, 7 days",70%
same,Anti-proliferation effect Outcome,"KYSE70; KYSE70, OESOPHAGUS, 7 days",Cytotoxic (cytotoxic (IC50<1 μM and % inhibition ≥70%))
same,IC50,"LN18; Homo sapiens, LN-18, 168 h, read-out: Anti-proliferation effect IC50",15 nM
same,Anti-proliferation effect % Inh.,"LN18; LN18, CNS, 7 days",91%
same,Anti-proliferation effect Outcome,"LN18; LN18, CNS, 7 days",Cytotoxic (cytotoxic (IC50<1 μM and % inhibition ≥70%))
same,IC50,"LNCAP; Homo sapiens, LNCaP, 168 h, read-out: Anti-proliferation effect IC50",59 nM
same,Anti-proliferation effect % Inh.,"LNCAP; LNCAP, PROSTATE, 7 days",74%
same,Anti-proliferation effect Outcome,"LNCAP; LNCAP, PROSTATE, 7 days",Cytotoxic (cytotoxic (IC50<1 μM and % inhibition ≥70%))
same,IC50,"MDAMB453; Homo sapiens, MDA-MB-453, 168 h, read-out: Anti-proliferation effect IC50",39 nM
same,Anti-proliferation effect % Inh.,"MDAMB453; MDAMB453, BREAST, 7 days",56%
same,Anti-proliferation effect Outcome,"MDAMB453; MDAMB453, BREAST, 7 days",Cytostatic (cytostatic (IC50<1 μM and % inhibition <70%))
same,IC50,"MDAMB468; Homo sapiens, MDA-MB-468, 168 h, read-out: Anti-proliferation effect IC50",8 nM
same,Anti-proliferation effect % Inh.,"MDAMB468; MDAMB468, BREAST, 7 days",100%
same,Anti-proliferation effect Outcome,"MDAMB468; MDAMB468, BREAST, 7 days",Cytotoxic (cytotoxic (IC50<1 μM and % inhibition ≥70%))
same,IC50,"NCIH1975; Homo sapiens, NCI-H1975, 168 h, read-out: Anti-proliferation effect IC50",21 nM
same,Anti-proliferation effect % Inh.,"NCIH1975; NCIH1975, LUNG, 7 days",90%
same,Anti-proliferation effect Outcome,"NCIH1975; NCIH1975, LUNG, 7 days",Cytotoxic (cytotoxic (IC50<1 μM and % inhibition ≥70%))
same,IC50,"NUGC4; Homo sapiens, NUGC-4, 168 h, read-out: Anti-proliferation effect IC50",19 nM
same,Anti-proliferation effect % Inh.,"NUGC4; NUGC4, STOMACH, 7 days",83%
same,Anti-proliferation effect Outcome,"NUGC4; NUGC4, STOMACH, 7 days",Cytotoxic (cytotoxic (IC50<1 μM and % inhibition ≥70%))
same,IC50,"PLCPRF5; Homo sapiens, PLC-PRF-5, 168 h, read-out: Anti-proliferation effect IC50",> 10000 nM
same,Anti-proliferation effect % Inh.,"PLCPRF5; PLCPRF5, LIVER, 7 days",41%
same,Anti-proliferation effect Outcome,"PLCPRF5; PLCPRF5, LIVER, 7 days",Insensitive (insensitive (IC50≥1 μM))
same,IC50,"SKHEP1; Homo sapiens, SK-HEP1, 168 h, read-out: Anti-proliferation effect IC50",118 nM
same,Anti-proliferation effect % Inh.,"SKHEP1; SKHEP1, LIVER, 7 days",71%
same,Anti-proliferation effect Outcome,"SKHEP1; SKHEP1, LIVER, 7 days",Cytotoxic (cytotoxic (IC50<1 μM and % inhibition ≥70%))
same,IC50,"SNU5; Homo sapiens, SNU-5, 168 h, read-out: Anti-proliferation effect IC50",39 nM
same,Anti-proliferation effect % Inh.,"SNU5; SNU5, STOMACH, 7 days",79%
same,Anti-proliferation effect Outcome,"SNU5; SNU5, STOMACH, 7 days",Cytotoxic (cytotoxic (IC50<1 μM and % inhibition ≥70%))
same,IC50,"ZR751; Homo sapiens, ZR-75-1, 168 h, read-out: Anti-proliferation effect IC50",43 nM
same,Anti-proliferation effect % Inh.,"ZR751; ZR751, BREAST, 7 days",69%
same,Anti-proliferation effect Outcome,"ZR751; ZR751, BREAST, 7 days",Cytostatic (cytostatic (IC50<1 μM and % inhibition <70%))
